According to patent US20130274174A1, “THERAPEUTIC COMBINATION OF DAPTOMYCIN AND PROTEIN SYNTHESIS INHIBITOR ANTIBIOTIC, AND METHODS OF USE” (priority 2011, published 2013):
Converted amounts (≈) assume the structure as drawn. Like-named read-outs stand apart in the source and are kept apart here.

Columns and labels:
[1] = test system: S. aureus and enterococci; settings: Entenza et al. 2010; cited from earlier work
S. aureus MW2 (NRS123) = test: microbe, parasite or virus in culture; assay type: cell-based, Staphylococcus aureus; settings: Staphylococcus aureus
Protocol: S. aureus strains MW2 (NARSA collection clinical MRSA isolate, NRS123) and ATCC 33591 (MRSA strain from the American Type Culture Collection) were cultured on Mueller-Hinton II cation adjusted (MHA) medium in 90×90 mm square petri dishes. MHA containing ¼ of the MIC value of TR-700, TR-705, LZD, TIA, CLI, TET, or VAN, TMP/SMX throughout the plate and a continuous linear gradient of DAP across the plate was used to passage MW2. ATCC 33591 was passaged with ¼ of the MIC of a subset of these drugs (TR-700, TMP/SMX, and VAN). A DAP-only control passage group was included for both strains. DAP gradients were created by pouring two layers of media as previously described (Bryson, V., et al. 1952. Microbial selection. Science 116:45-51; Locke, J. B., et al., 2009. Antimicrob. Agents Chemother. 53:5265-5274). Following each passage the leading edge of growth (i.e., most resistant cells) was resuspended in phosphate buffered saline (PBS) to an absorbance of 0.30 OD600 and a 100 μl aliquot containing ˜3.0×10^7 CFU (colony-forming units) was spread on to the proceeding passage plate. The starting maximal DAP concentration was 2 μg/ml and was increased in two-fold increments when the leading edge of growth surpassed the half way point on the plate. A glycerol stock was made from the total cell population for each culture condition for each passage. Thirty serial passages were completed for each treatment group.

Structure (SMILES): CC1(C)S[C@@H]2[C@H](NC(=O)[C@H](N)c3ccccc3)C(=O)N2[C@H]1C(=O)O [ampicillin]
- prevention of the emergence of daptomycin resistance [1]: prevented or greatly delayed selection of daptomycin-nonsusceptible mutants

Structure (SMILES): C=C[C@]1(C)C[C@@H](OC(=O)CSCCN(CC)CC)[C@]2(C)[C@H](C)CC[C@]3(CCC(=O)[C@H]32)[C@@H](C)[C@@H]1O [TIA, tiamulin]
- MIC (S. aureus MW2 (NRS123); NRS123, passage 0, NRS123 WT): 0.5 µg/mL (≈ 1.01 µM)
- MIC (S. aureus MW2 (NRS123); NRS123, passage 5, selection group DAP): 0.5 µg/mL (≈ 1.01 µM)
- MIC (S. aureus MW2 (NRS123); NRS123, passage 5, selection group DAP + CLI): 1 µg/mL
- MIC (S. aureus MW2 (NRS123); NRS123, passage 5, selection group DAP + LZD): 1 µg/mL
- MIC (S. aureus MW2 (NRS123); NRS123, passage 5, selection group DAP + TET): 0.5 µg/mL
- MIC (S. aureus MW2 (NRS123); NRS123, passage 5, selection group DAP + TIA): 0.5 µg/mL
- MIC (S. aureus MW2 (NRS123); NRS123, passage 5, selection group DAP + TMP/SMX): 0.5 µg/mL
- MIC (S. aureus MW2 (NRS123); NRS123, passage 5, selection group DAP + TR-700): 1 µg/mL
- MIC (S. aureus MW2 (NRS123); NRS123, passage 5, selection group DAP + TR-705): 1 µg/mL
- MIC (S. aureus MW2 (NRS123); NRS123, passage 5, selection group DAP + VAN): 0.5 µg/mL
- MIC (S. aureus MW2 (NRS123); NRS123, passage 10, selection group DAP): 0.5 µg/mL (≈ 1.01 µM)
- MIC (S. aureus MW2 (NRS123); NRS123, passage 10, selection group DAP + CLI): 1 µg/mL
- MIC (S. aureus MW2 (NRS123); NRS123, passage 10, selection group DAP + LZD): 1 µg/mL
- MIC (S. aureus MW2 (NRS123); NRS123, passage 10, selection group DAP + TET): 0.5 µg/mL
- MIC (S. aureus MW2 (NRS123); NRS123, passage 10, selection group DAP + TIA): 0.5 µg/mL
- MIC (S. aureus MW2 (NRS123); NRS123, passage 10, selection group DAP + TMP/SMX): 1 µg/mL
- MIC (S. aureus MW2 (NRS123); NRS123, passage 10, selection group DAP + TR-700): 1 µg/mL
- MIC (S. aureus MW2 (NRS123); NRS123, passage 10, selection group DAP + TR-705): 0.5 µg/mL
- MIC (S. aureus MW2 (NRS123); NRS123, passage 10, selection group DAP + VAN): 0.5 µg/mL
- MIC (S. aureus MW2 (NRS123); NRS123, passage 15, selection group DAP): 0.5 µg/mL (≈ 1.01 µM)
- MIC (S. aureus MW2 (NRS123); NRS123, passage 15, selection group DAP + CLI): 0.5 µg/mL
- MIC (S. aureus MW2 (NRS123); NRS123, passage 15, selection group DAP + LZD): 1 µg/mL
- MIC (S. aureus MW2 (NRS123); NRS123, passage 15, selection group DAP + TET): 0.25 µg/mL
- MIC (S. aureus MW2 (NRS123); NRS123, passage 15, selection group DAP + TIA): 0.5 µg/mL
- MIC (S. aureus MW2 (NRS123); NRS123, passage 15, selection group DAP + TMP/SMX): 1 µg/mL
- MIC (S. aureus MW2 (NRS123); NRS123, passage 15, selection group DAP + TR-700): 1 µg/mL
- MIC (S. aureus MW2 (NRS123); NRS123, passage 15, selection group DAP + TR-705): 0.5 µg/mL
- MIC (S. aureus MW2 (NRS123); NRS123, passage 15, selection group DAP + VAN): 0.5 µg/mL
- MIC (S. aureus MW2 (NRS123); NRS123, passage 20, selection group DAP): 0.5 µg/mL (≈ 1.01 µM)
- MIC (S. aureus MW2 (NRS123); NRS123, passage 20, selection group DAP + CLI): 0.5 µg/mL
- MIC (S. aureus MW2 (NRS123); NRS123, passage 20, selection group DAP + LZD): 1 µg/mL
- MIC (S. aureus MW2 (NRS123); NRS123, passage 20, selection group DAP + TET): 0.25 µg/mL
- MIC (S. aureus MW2 (NRS123); NRS123, passage 20, selection group DAP + TIA): 0.5 µg/mL
- MIC (S. aureus MW2 (NRS123); NRS123, passage 20, selection group DAP + TMP/SMX): 0.5 µg/mL
- MIC (S. aureus MW2 (NRS123); NRS123, passage 20, selection group DAP + TR-700): 1 µg/mL
- MIC (S. aureus MW2 (NRS123); NRS123, passage 20, selection group DAP + TR-705): 0.5 µg/mL
- MIC (S. aureus MW2 (NRS123); NRS123, passage 20, selection group DAP + VAN): 0.5 µg/mL
- MIC (S. aureus MW2 (NRS123); NRS123, passage 25, selection group DAP): 0.25 µg/mL (≈ 0.506 µM)
- MIC (S. aureus MW2 (NRS123); NRS123, passage 25, selection group DAP + CLI): 0.5 µg/mL
- MIC (S. aureus MW2 (NRS123); NRS123, passage 25, selection group DAP + LZD): 0.25 µg/mL
- MIC (S. aureus MW2 (NRS123); NRS123, passage 25, selection group DAP + TET): 0.25 µg/mL
- MIC (S. aureus MW2 (NRS123); NRS123, passage 25, selection group DAP + TIA): 0.5 µg/mL
- MIC (S. aureus MW2 (NRS123); NRS123, passage 25, selection group DAP + TMP/SMX): 0.5 µg/mL
- MIC (S. aureus MW2 (NRS123); NRS123, passage 25, selection group DAP + TR-700): 1 µg/mL
- MIC (S. aureus MW2 (NRS123); NRS123, passage 25, selection group DAP + TR-705): 0.5 µg/mL
- MIC (S. aureus MW2 (NRS123); NRS123, passage 25, selection group DAP + VAN): 0.5 µg/mL
- MIC (S. aureus MW2 (NRS123); NRS123, passage 30, selection group DAP): 0.25 µg/mL (≈ 0.506 µM)
- MIC (S. aureus MW2 (NRS123); NRS123, passage 30, selection group DAP + CLI): 0.25 µg/mL
- MIC (S. aureus MW2 (NRS123); NRS123, passage 30, selection group DAP + LZD): 0.5 µg/mL
- MIC (S. aureus MW2 (NRS123); NRS123, passage 30, selection group DAP + TET): 0.25 µg/mL
- MIC (S. aureus MW2 (NRS123); NRS123, passage 30, selection group DAP + TIA): 0.5 µg/mL
- MIC (S. aureus MW2 (NRS123); NRS123, passage 30, selection group DAP + TMP/SMX): 0.5 µg/mL
- MIC (S. aureus MW2 (NRS123); NRS123, passage 30, selection group DAP + TR-700): 0.5 µg/mL
- MIC (S. aureus MW2 (NRS123); NRS123, passage 30, selection group DAP + TR-705): 0.5 µg/mL
- MIC (S. aureus MW2 (NRS123); NRS123, passage 30, selection group DAP + VAN): 0.25 µg/mL
- MIC (S. aureus MW2 (NRS123); NRS123, read-out: DAP MIC by the end of the experiment (selection of DAP^ns strains), MW2, passaged with DAP alone or with co-selecting agent at ¼ MIC, CLSI breakpoint): > 1 µg/mL
